Target: T1, S-SMase (Mus musculus, UniProt Q04519)
T1 construct: endogenous in cells; host or cells: J774.A1 macrophages, serum-free conditioned medium
T1 sequence (Q04519 45-627): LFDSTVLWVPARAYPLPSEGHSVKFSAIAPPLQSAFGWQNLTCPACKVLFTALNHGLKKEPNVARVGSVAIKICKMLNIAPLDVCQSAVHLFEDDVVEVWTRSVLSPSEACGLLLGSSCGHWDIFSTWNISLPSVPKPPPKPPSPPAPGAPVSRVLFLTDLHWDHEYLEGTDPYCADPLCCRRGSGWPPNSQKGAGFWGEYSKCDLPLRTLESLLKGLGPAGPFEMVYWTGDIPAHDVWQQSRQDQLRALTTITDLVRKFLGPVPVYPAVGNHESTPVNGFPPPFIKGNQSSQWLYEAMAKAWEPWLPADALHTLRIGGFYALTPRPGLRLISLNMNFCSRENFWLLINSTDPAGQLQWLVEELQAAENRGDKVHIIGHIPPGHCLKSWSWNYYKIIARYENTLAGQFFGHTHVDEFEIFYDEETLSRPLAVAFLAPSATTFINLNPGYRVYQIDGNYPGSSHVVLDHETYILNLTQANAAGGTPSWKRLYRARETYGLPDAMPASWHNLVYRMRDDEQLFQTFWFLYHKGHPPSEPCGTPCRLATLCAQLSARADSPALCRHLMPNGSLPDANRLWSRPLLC
Assay: SMase assay of conditioned medium from J774 macrophages (SM micelles, pH 5.0)
Format: biochemical
Details: 0.1 mM ZnCl2 versus 5 mM EDTA
Procedure: FIGS. 14A-B. Sequential chelation and addition of Zn^2+ to secreted and intracellular SMase. Serum-free conditioned medium and a cell homogenate from J774 macrophages were prepared as described in “Experimental Procedures”. FIG. 14A, conditioned medium (CM) was assayed for SMase activity using 250 nM [^3H]sphingomyelin in Triton X-100 micelles in the presence of either 5 mM EDTA (first bar) or 0.1 mM ZnCl2 (second bar) for 1 h at 37° C. at pH 5.0. An aliquot of the Zn-activated conditioned medium was then incubated for 18 h in the presence of 10 mM EDTA, 10 mM 1,10-phenanthroline, and 0.6% Triton X-100 at 4° C. (EDTA PHNANTH) and then assayed for SMase activity (third bar). After chelation, a portion of this partially inactivated conditioned medium was then dialyzed against zinc-containing buffer C (150 mM NaCl, 10 mM Tris-HCl, 1 mM ZnCl2, 0.6% Triton X-100, pH 7.4) for 18 h and then assayed for SMase activity (fourth bar). FIG. 14B, an aliquot of cell homogenate (Cell Homgn) was assayed for SMase activity in the presence of assay buffer alone (first bar), 5 mM EDTA (second bar), or 0.1 mM ZnCl2 (third bar). Another aliquot of cell homogenate was incubated for 8 h in the presence of 10 mM EDTA, 10 mm 1,10-phenanthroline, and 0.6% Triton X-100 (EDTA PHNANTH) at 4° C. and then assayed for SMase activity (fourth bar). An aliquot of this chelator-treated cell homogenate was then dialyzed against zinc-containing buffer C for 18 h and then assayed for SMase activity (fifth bar).
SMase Assay—As previously described (Schissel et al., 1996), the standard 200-μl assay mixture consisted of up to 40 μl of sample (conditioned media or homogenized cells; see above) and a volume of assay buffer (0.1 M sodium acetate, pH 5.0) to bring the volume to 160 μl. […] The ceramide spots were scraped and directly counted to quantify [^3H]ceramide. Typically, the assay reactions contained approximately 20 μg of cellular homogenate protein and a volume of conditioned media derived from a quantity of cells equivalent to approximately 50 μg of cellular protein.

Structure (SMILES): [Cl-].[Cl-].[Zn+2] [Zn^2+, ZnCl2]
- activation of S-SMase: markedly activated
